# According to patent US12201628B2, “Neuronal modulation” (priority 2013, dated 2025):
# “Also recorded” adds a separate entry of the source.
# Assays:
# VTA dopaminergic neurons = experiment: Conditional place preference (CPP) paradigm; format: in vivo, mice; details: CNO 2.5 mg/kg
# Procedure: All behavioral tests were conducted during the same circadian period. The conditional place preference (CPP) test was performed in a rectangular cage with two chambers (25 cm×25 cm each), with a corridor (5 cm×5 cm) connecting the two chambers. The chambers differed in their visual cues and were designed so that mice will have no bias for a particular chamber. The CPP paradigm consisted of four sessions over four days and was conducted 30 days after the viral stereotactic injection. On day 1, individual mice were placed in the connecting corridor (in the same direction) and allowed to freely explore the entire apparatus for 15 minutes (pre-test). On day 2, mice were IP injected with CNO (2.5 mg/kg, Sigma-Aldrich) diluted in sterile saline in order to activate the VTA dopaminergic neurons and then the mice were confined to one of the chambers for 30 min. On day 3, mice were confined to the other chamber for 30 min, 10 min after an injection of sterile saline. On day 4, mice were placed in the center chamber and allowed to freely explore the entire apparatus for 15 minutes (post-test). To calculate the level of preference, the relative time (%) the mouse spent during post-test in the conditioned chamber (the chamber where it received the CNO injection) was divided by the relative time (%) the mouse spent in this chamber during the pre-test (post/pre ratio). Of note, mice in both groups were injected with CNO to control for the potential effects of CNO. The analysis was performed automatically using EthoVision software.
# Behavioral analysis (conditioned place preference; CPP): Three groups of mice were used in this experiment: mice injected with AAV virus encoding the hM3D (Gq), hM4D (Gi) or control carrying only mCherry. On day 1 the mice were given a chance to explore the apparatus for 5 minutes. […] At this stage the mice were only allowed access to one compartment of the apparatus and remains in the compartment for 30 minutes. Day 3: Mice were confounded to the other compartment. […] Time spent in each compartment was measured by motion detecting software (EthoVision). […]
# GFP-expressing E. coli = experiment: In-vivo E. coli phagocytosis; parameters: species or system mice; details: E. coli injected 24 h after VTA activation, analysed 2 h later; vs controls
# Procedure: Virus-injected mice were IP treated with CNO. Twenty four hours later, GFP-expressing E. coli (MG165K12; 8×10^8 CFU/mouse) were injected IP. After two hours, the peritoneal lymphocytes were collected by peritoneal lavage. For peritoneal lavage, the mice were sacrificed and their skin was cleaned with 70% ethanol. Then, 5 ml ice-cold PBS containing 1% fetal bovine serum were injected into the peritoneum, followed by gentle massage to allow distribution of the lavage fluid throughout the peritoneal cavity. The fluid was then collected using a 5 ml syringe attached to a 21-gauge needle, and cells were then washed twice in FACS staining buffer (PBS containing 1% bovine serum albumin and 0.05% sodium azide). In order to evaluate the degree of monocyte phagocytosis of the fluorescent bacteria, peritoneal lavage cells were stained with PerCP-conjugated anti-CD11b antibody (M1/70, Biolegend). All samples were analyzed on an LSRFortessa cell analyzer (BD Biosciences, NJ). […]
# To determine the effects of VTA activation on antibacterial activity in vivo, the VTA-dopaminergic neurons were activated, and 24 h later injected the mice with GFP-expressing E. coli. Two hours later, lymphocytes were extracted from the peritoneal cavity of the mice and determined by flow cytometry GFP levels; only cells that phagocytized the E. coli could express GFP.
# IL-4 and IL-1β = experiment: Serum cytokine levels (RayBio antibody array, ELISA); format: in vivo, mice; details: 24 h after CNO; VTA-activated vs control
# Procedure: VTA-activated and control mice were treated with CNO. Twenty four hours later, they were anaesthetized with ketamine/xylazine and their blood was collected by cardiac puncture. The blood was allowed to clot at room temperature for at least 30 minutes. Serum was collected by centrifuging the sample at 400 g for 10 min. The serum samples pooled from each experimental group (VTA-activated group and control group) were analyzed for cytokine and chemokine levels using the RayBio custom G-Series mouse cytokine antibody array kit (RayBiotech; Norcross, GA) according to manufacturer's instructions. The panel included: CD30 ligand, Eotaxin-1, Eotaxin-2, IFN-γ, IL-1α, IL-1β, IL-2, IL-3, IL-4, IL-6, IL-9, IL-10, IL-12 p40/p70, IL-12 p70, IL-13, IL-17A, MIP-1α, MIP-1γ, RANTES and TNFα. Murine IL-4 and IL-1β standard ELISA kits (PeproTech; Rocky Hill, NJ) were used as a quantitative validation of the IL-4 and IL-1β levels measured with the antibody array kit.
# [1] = tested on: immune populations in the spleen; experiment: CyTOF of spleen after VTA DA activation and LPS injection; format: in vivo, mice; details: spleen 24 h after VTA DA activation and LPS injection; Gq vs control
# Procedure: FIGS. 3A-3E. Are graphs showing the effects of VTA DA neurons activation on a numbers of defined immune populations in the spleen as determined by CyTOF. FIG. 3A is an experimental timeline: spleens were collected from control and Gq mice 24 h after VTA DA activation and LPS injection (5 ug/kg). […] The individual ions were counted and then parsed into a flow cytometry file format. This file can be analyzed by traditional flow cytometry software or by SPADE, which allows integrating the complex information. SPADE analysis is composed of several steps: A density-dependent down-sampling of the original data is clustered. Adjacent clusters are drawn in alternating colors. Minimum spanning tree that connects the cell clusters is generated and color-coded. Nodes are colored by the number of cells in each cluster (7-547 cells). This allows visualization of the changes in the various immune populations. Cluster of CD8, CD4, NK B cell and monocytes are indicated.
# CyTOF mass cytometry: Single-cell suspensions of cells from the blood/bone marrow/spleen/lymph nodes of the treated mice are stained with monoclonal or polyclonal antibodies, conjugated to metal probes. […]
# [2] = mice; cited from earlier work
smiles,measurement,setting,value
"C[N+]1([O-])CCN(C2=Nc3cc(Cl)ccc3Nc3ccccc32)CC1 [CNO, clozapine-N-oxide]",preference for conditioned chamber (CPP),VTA dopaminergic neurons; Gi (hM4D) mice,avoided the conditioned chamber
same,preference for conditioned chamber (CPP),"VTA dopaminergic neurons; Gq (hM3D, VTA-activated) mice",exhibited a preference for the conditioned chamber; also recorded: increased preference to the conditioned chamber; also recorded: strong preference towards the chamber in which they were injected with CNO
same,preference for conditioned chamber (CPP),VTA dopaminergic neurons; control mice (mCherry only virus),no such bias; also recorded: did not show a clear preference to any single chamber
same,number of CD11b+GFP+ cells in the peritoneum,GFP-expressing E. coli,increased number of CD11b+GFP+ cells
same,serum IL-1β level,IL-4 and IL-1β,significantly reduced
same,serum IL-4 level,IL-4 and IL-1β,significantly reduced
same,levels of CD69,[1],No change was detected
same,conversion of CNO to clozapine,[2],does not convert to clozapine
